Experimental data from the NIST ThermoML archive (doi:10.1021/je7001539).
Numbers after ± are expanded uncertainties.

Conditions: Liquid

Structure (SMILES)	vapor or sublimation pressure (243.15 K) [kPa]	vapor or sublimation pressure (253.15 K) [kPa]	vapor or sublimation pressure (263.15 K) [kPa]	vapor or sublimation pressure (272.15 K) [kPa]	vapor or sublimation pressure (283.15 K) [kPa]	vapor or sublimation pressure (293.15 K) [kPa]	vapor or sublimation pressure (303.15 K) [kPa]	vapor or sublimation pressure (313.15 K) [kPa]	vapor or sublimation pressure (323.15 K) [kPa]	vapor or sublimation pressure (333.15 K) [kPa]
FC(F)C(F)(F)F [pentafluoroethane]	228.5 ± 6.1	337.9 ± 8.5	483.1 ± 12	650.1 ± 16	908.8 ± 23	1204.5 ± 30	1566.8 ± 39	2005.6 ± 50	2533.2 ± 63	3167.4 ± 79
CC(C)C [2-methylpropane]	46.2 ± 3.2	72 ± 3.5	107.9 ± 3.9	150.9 ± 4.6	220.1 ± 5.9	301.8 ± 7.6	404.3 ± 10	530.8 ± 13	684.3 ± 17	868.3 ± 22
